Our source for the IC50 values is US12595253B2, “Benzamides of pyrazolylamino-pyrimidinyl derivatives, and compositions and methods thereof” (LYNK PHARMACEUTICALS CO. LTD., priority 2019, dated 2026).

SMILES strings stand for the structures.

In the first assay the target is T1, JAK1 (Homo sapiens, UniProt P23458).
T1 construct: purchased Carna Biosciences
T1 sequence (P23458 whole entry): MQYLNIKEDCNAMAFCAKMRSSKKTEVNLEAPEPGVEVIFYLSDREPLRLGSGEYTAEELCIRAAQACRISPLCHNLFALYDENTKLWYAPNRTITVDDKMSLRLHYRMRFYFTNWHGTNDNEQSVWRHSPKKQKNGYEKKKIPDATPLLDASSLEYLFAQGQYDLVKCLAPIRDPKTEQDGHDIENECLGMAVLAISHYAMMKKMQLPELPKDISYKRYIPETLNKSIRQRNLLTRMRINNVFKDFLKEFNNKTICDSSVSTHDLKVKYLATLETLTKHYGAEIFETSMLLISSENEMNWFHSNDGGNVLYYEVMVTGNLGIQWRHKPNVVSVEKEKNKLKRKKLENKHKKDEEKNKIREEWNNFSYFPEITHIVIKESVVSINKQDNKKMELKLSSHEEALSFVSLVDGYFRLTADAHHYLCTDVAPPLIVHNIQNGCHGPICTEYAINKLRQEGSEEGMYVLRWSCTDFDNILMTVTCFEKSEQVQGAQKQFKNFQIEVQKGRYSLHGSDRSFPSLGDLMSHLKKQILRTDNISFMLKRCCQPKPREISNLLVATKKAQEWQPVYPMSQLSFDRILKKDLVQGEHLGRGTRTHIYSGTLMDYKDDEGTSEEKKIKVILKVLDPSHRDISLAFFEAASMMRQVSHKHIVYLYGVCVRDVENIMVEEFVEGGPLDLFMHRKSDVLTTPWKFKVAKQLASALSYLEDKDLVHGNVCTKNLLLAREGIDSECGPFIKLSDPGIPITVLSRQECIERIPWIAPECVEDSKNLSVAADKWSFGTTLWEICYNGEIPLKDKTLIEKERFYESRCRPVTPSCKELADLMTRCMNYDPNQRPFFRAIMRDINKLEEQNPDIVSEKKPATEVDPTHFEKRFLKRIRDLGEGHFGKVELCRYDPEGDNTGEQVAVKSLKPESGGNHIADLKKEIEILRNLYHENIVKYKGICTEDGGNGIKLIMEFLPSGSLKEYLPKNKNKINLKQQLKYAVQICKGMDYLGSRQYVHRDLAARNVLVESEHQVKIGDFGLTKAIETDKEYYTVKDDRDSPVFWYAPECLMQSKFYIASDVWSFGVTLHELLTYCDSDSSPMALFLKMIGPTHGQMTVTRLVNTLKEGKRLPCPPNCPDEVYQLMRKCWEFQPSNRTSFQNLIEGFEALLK
Briefly: JAK1 microfluidic kinase assay (Caliper EZ Reader II, FAM labeled peptide substrate). Format: biochemical. Conditions: IC50 JAK1 (5 nM) (1 m MATP), JAK1 5 nM, 1 mM ATP. Here is the method: (§1) Compounds were tested against JAK1, JAK2, JAK2V617F and TYK2. Assay Formats: JAK activity was determined in the reaction buffer 50 mM HEPES, 0.01% Brij35, 10 mM MgCl2, 2 mM DTT by a microfluidic assay. The phosphorylation of a FAM labeled peptide substrate was monitored in the Caliper EZ Reader II (Perkin Elmer). The assay condition for each batch of enzyme (Carna Biosciences) was optimized to obtain 10% conversion rate of peptide substrate. The test compounds were dissolved in DMSO to a stock concentration of 10 mM. 3-fold serially diluted compounds with top concentration of 5 μM were pre-incubated with JAK1, JAK2, JAK2V617F or TYK2 at indicated concentrations for 10 min at ambient temperature. The final DMSO concentration of assay mixture was 1%. […] The reaction was stopped by adding 50 mM EDTA. […] The percent inhibition was calculated by the following formula. % Inhibition=(Conversionmax−Conversionsample)/(Conversionmax−Conversionmin)*100 • Conversionmax means the conversion rate in the positive well without addition of compound • Conversionmin means the conversion rate in the well without addition of enzyme • Conversionsample means the conversion rate of test compounds The dose-response (percent inhibition) curve was plotted and IC50 values were determined by GraphPad software.
For `Cn1cc(Nc2ncc(Cl)c(-c3ccc(C(=O)NCC4(C#N)CC4)cc3)n2)cn1` [Example 124], the half-maximal inhibitory concentration (IC50) is 22 nM. Compound `N#CCNC(=O)c1ccc(-c2nc(Nc3cnn(CC(N)=O)c3)ncc2Cl)cc1` [Example 42, 4-(2-((1-(2-amino-2-oxoethyl)-1H-pyrazol-4-yl)amino)-5-chloropyrimidin-4-yl)-N-(cyanomethyl)benzamide] showed an IC50 of 90.8 nM.

The target in another assay is T2, JAK2 (Homo sapiens, UniProt O60674).
T2 construct: purchased Carna Biosciences
T2 sequence (O60674 whole entry): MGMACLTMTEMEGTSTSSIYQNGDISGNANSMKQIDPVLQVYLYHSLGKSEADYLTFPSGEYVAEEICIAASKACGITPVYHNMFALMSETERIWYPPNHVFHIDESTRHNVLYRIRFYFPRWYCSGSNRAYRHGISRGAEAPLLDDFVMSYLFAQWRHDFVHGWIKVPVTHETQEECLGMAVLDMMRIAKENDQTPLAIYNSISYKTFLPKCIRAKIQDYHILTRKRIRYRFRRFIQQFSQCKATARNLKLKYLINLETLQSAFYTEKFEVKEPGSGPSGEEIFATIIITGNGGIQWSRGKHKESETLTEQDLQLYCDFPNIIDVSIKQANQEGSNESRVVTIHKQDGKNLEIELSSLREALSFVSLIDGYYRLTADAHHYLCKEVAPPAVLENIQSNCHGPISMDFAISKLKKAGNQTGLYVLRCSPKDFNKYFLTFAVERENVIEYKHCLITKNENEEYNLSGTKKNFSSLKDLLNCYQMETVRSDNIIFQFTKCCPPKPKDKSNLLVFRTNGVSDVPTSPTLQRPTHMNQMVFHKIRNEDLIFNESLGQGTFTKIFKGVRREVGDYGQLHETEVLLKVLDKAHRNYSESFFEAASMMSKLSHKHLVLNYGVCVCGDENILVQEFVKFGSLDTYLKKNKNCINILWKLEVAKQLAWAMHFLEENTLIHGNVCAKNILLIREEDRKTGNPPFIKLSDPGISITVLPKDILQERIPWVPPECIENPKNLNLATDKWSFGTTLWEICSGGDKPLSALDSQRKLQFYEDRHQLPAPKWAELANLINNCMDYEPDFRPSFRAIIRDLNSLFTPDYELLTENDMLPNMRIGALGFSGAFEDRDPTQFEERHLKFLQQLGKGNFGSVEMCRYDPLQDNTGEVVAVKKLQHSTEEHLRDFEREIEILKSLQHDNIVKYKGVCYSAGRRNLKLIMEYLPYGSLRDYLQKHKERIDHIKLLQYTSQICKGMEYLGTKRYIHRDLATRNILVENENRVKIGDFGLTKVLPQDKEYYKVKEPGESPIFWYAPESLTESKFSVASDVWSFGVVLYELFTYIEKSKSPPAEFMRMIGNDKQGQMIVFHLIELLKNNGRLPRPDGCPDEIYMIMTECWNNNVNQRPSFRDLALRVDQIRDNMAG
Briefly: JAK2 microfluidic kinase assay (Caliper EZ Reader II, FAM labeled peptide substrate). Format: biochemical. Conditions: IC50 JAK2 ([…]) (1 mM ATP), 1 mM ATP. Here is the method:
as §1
On to `Cn1cc(Nc2ncc(Cl)c(-c3ccc(C(=O)NCC4(C#N)CC4)cc3)n2)cn1` [Example 124], for which the 50% inhibitory concentration (IC50) was determined as 47.1 nM. For the compound `N#CCNC(=O)c1ccc(-c2nc(Nc3cnn(C4CC4)c3)ncc2C(F)F)cc1F` [Example 109, N-(cyanomethyl)-4-(2-((1-cyclopropyl-1H-pyrazol-4-yl)amino)-5-(difluoromethyl)pyrimidin-4-yl)-2-fluorobenzamide], the IC50 was determined as 457 nM.

Staying with this assay, now noted: IC50 JAK2 ([…]) (Km ATP), Km ATP.
`Cn1cc(Nc2nccc(-c3ccc(C(=O)NCC#N)cc3F)n2)cn1` [Example 35, N-(Cyanomethyl)-3-fluoro-4-(2-((1-methyl-1H-pyrazol-4-yl)amino)pyrimidin-4-yl)benzamide]: half-maximal inhibition (IC50) required 34.9 nM.

The compound `N#CCNC(=O)c1ccc(-c2nc(Nc3cnn(CC(F)(F)F)c3)ncc2F)cc1F` [Example 130, N-(cyanomethyl)-2-fluoro-4-(5-fluoro-2-((1-(2,2,2-trifluoroethyl)-1H-pyrazol-4-yl)amino)pyrimidin-4-yl)benzamide] had an IC50 of 58.1 nM.

For `Cc1cnc(Nc2cnn(C)c2)nc1-c1ccc(C(=O)NCCO)cc1` [Example 8, N-(2-Hydroxyethyl)-4-(5-methyl-2-((1-methyl-1H-pyrazol-4-yl)amino)pyrimidin-4-yl)benzamide], half-maximal inhibition (IC50) was put at 14 nM. The compound `N#CCNC(=O)c1ccc(-c2nc(Nc3cnn(CC(F)F)c3)ncc2F)cc1F` [Example 131, N-(cyanomethyl)-4-(2-((1-(2,2-difluoroethyl)-1H-pyrazol-4-yl)amino)-5-fluoropyrimidin-4-yl)-2-fluorobenzamide] gave an IC50 of 26.2 nM. Take `N#CC1CN(C(=O)c2ccc(-c3nc(Nc4cnn(C5CC5)c4)ncc3Cl)cc2F)C1` [Example 136, 1-(4-(5-Chloro-2-((1-cyclopropyl-1H-pyrazol-4-yl)amino)pyrimidin-4-yl)-2-fluorobenzoyl)azetidine-3-carbonitrile]: half-maximal inhibition (IC50) required 9.2 nM. The compound `Cc1cnc(Nc2cnn(C3CCN(C(=O)C4(C)COC4)CC3)c2)nc1-c1ccc(C(=O)NCC#N)cc1` [Example 118, N-(Cyanomethyl)-4-(5-methyl-2-((1-(1-(3-methyloxetane-3-carbonyl)piperidin-4-yl)-1H-pyrazol-4-yl)amino)pyrimidin-4-yl)benzamide] gave an IC50 of less than 0.25 nM.

The compound `COc1cc(-c2nc(Nc3cnn(C)c3)ncc2C)ccc1C(=O)NCC#N` [Example 33, N-(cyanomethyl)-2-methoxy-4-(5-methyl-2-((1-methyl-1H-pyrazol-4-yl)amino)pyrimidin-4-yl)benzamide] displayed a concentration for half-maximal inhibition (IC50) of 41 nM. With `N#CCNC(=O)c1ccc(-c2nc(Nc3cnn(C4CC4)c3)ncc2Cl)cc1F` [Example 135, 4-(5-Chloro-2-((1-cyclopropyl-1H-pyrazol-4-yl)amino)pyrimidin-4-yl)-N-(cyanomethyl)-2-fluorobenzamide], inhibition was half-maximal at 2.8 nM (IC50). `Cc1cnc(Nc2cnn(C)c2)nc1-c1ccc(C(=O)NCCN(C)C)cc1` [Example 105, N-(2-(Dimethylamino)ethyl)-4-(5-methyl-2-((1-methyl-1H-pyrazol-4-yl)amino)pyrimidin-4-yl)benzamide]: the IC50 was 55.9 nM. Regarding `Cc1cnc(Nc2cnn(C)c2)nc1-c1ccc(C(=O)NC2CC(O)C2)cc1` (centres unmarked) [Example 9, N-(3-Hydroxycyclobutyl)-4-(5-methyl-2-((1-methyl-1H-pyrazol-4-yl)amino)pyrimidin-4-yl)benzamide], the IC50 stood at 17.2 nM. As for `N#CC1CN(C(=O)c2ccc(-c3ccnc(Nc4cnn(C5CC5)c4)n3)cc2F)C1` [Example 141, 1-(4-(2-((1-Cyclopropyl-1H-pyrazol-4-yl)amino)pyrimidin-4-yl)-2-fluorobenzoyl)azetidine-3-carbonitrile], the IC50 is 40.4 nM. `Cc1cnc(Nc2cnn(C)c2)nc1-c1ccc(C(=O)NCC(O)CO)cc1` (centres unmarked) [Example 14, N-(2,3-Dihydroxypropyl)-4-(5-methyl-2-((1-methyl-1H-pyrazol-4-yl)amino)pyrimidin-4-yl)benzamide] came in with a 50% inhibitory concentration (IC50) of 14.3 nM.

`C[C@@H](C#N)NC(=O)c1ccc(-c2ccnc(Nc3cnn(C4CC4)c3)n2)cc1F` [Example 142, (S)—N-(1-Cyanoethyl)-4-(2-((1-cyclopropyl-1H-pyrazol-4-yl)amino)pyrimidin-4-yl)-2-fluorobenzamide] returned an IC50 of 12.6 nM.

`Cc1cnc(Nc2cnn(C)c2)nc1-c1ccc(C(=O)NCC#N)c(F)c1` [Example 100, N-(Cyanomethyl)-2-fluoro-4-(5-methyl-2-((1-methyl-1H-pyrazol-4-yl)amino)pyrimidin-4-yl)benzamide] returned a half-inhibitory concentration (IC50) of 4.34 nM. In turn, `Cc1cnc(Nc2cnn(C3CCN(CC#N)CC3)c2)nc1-c1ccc(C(=O)N2CC(C#N)C2)cc1` [Example 23, 1-(4-(2-((1-(1-(Cyanomethyl)piperidin-4-yl)-1H-pyrazol-4-yl)amino)-5-methylpyrimidin-4-yl)benzoyl)azetidine-3-carbonitrile] returned a half-maximal inhibitory concentration (IC50) of 2.9 nM.

Turning to `Cc1cnc(Nc2cnn(CC#N)c2)nc1-c1ccc(C(=O)N2CC(C#N)C2)cc1` [Example 30, 1-(4-(2-((1-(Cyanomethyl)-1H-pyrazol-4-yl)amino)-5-methylpyrimidin-4-yl)benzoyl)azetidine-3-carbonitrile], the IC50 was 11.5 nM. `Cc1cnc(Nc2cnn(C)c2)nc1-c1ccc(C(=O)N2CC(C#N)C2)cc1` [Example 15, 1-(4-(5-Methyl-2-((1-methyl-1H-pyrazol-4-yl)amino)pyrimidin-4-yl)benzoyl)azetidine-3-carbonitrile]: half-maximal inhibition (IC50) required 8.6 nM. In the case of `Cc1cnc(Nc2cnn(C3CC3)c2)nc1-c1ccc(C(=O)N2CC(C#N)C2)cc1` [Example 29, 1-(4-(2-((1-Cyclopropyl-1H-pyrazol-4-yl)amino)-5-methylpyrimidin-4-yl)benzoyl)azetidine-3-carbonitrile], it took 5.49 nM to reach half-maximal inhibition (IC50). `Cc1cnc(Nc2cnn(C)c2)nc1-c1ccc(C(=O)NCCCO)cc1` [Example 7, N-(3-Hydroxypropyl)-4-(5-methyl-2-((1-methyl-1H-pyrazol-4-yl)amino)pyrimidin-4-yl)benzamide] yielded a half-maximal inhibitory concentration (IC50) of 10.1 nM. With `Cc1cnc(Nc2cnn(CC(F)(F)F)c2)nc1-c1ccc(C(=O)N2CC(C#N)C2)cc1` [Example 5, 1-(4-(5-Methyl-2-((1-(2,2,2-trifluoroethyl)-1H-pyrazol-4-yl)amino)pyrimidin-4-yl)benzoyl)azetidine-3-carbonitrile], the IC50 was found to be 16.6 nM. Take `Cn1cc(Nc2ncc(F)c(-c3ccc(C(=O)NCC#N)c(F)c3)n2)cn1` [Example 36, N-(Cyanomethyl)-2-fluoro-4-(5-fluoro-2-((1-methyl-1H-pyrazol-4-yl)amino)pyrimidin-4-yl)benzamide]: 22 nM corresponded to half-maximal inhibition (IC50). As to `N#CCNC(=O)c1ccc(-c2nc(Nc3cnn(C4CC4)c3)ncc2F)cc1F` [Example 116, N-(Cyanomethyl)-4-(2-((1-cyclopropyl-1H-pyrazol-4-yl)amino)-5-fluoropyrimidin-4-yl)-2-fluorobenzamide], the IC50 stood at 10.6 nM.

`CC(=O)N1CCC(n2cc(Nc3ncc(C)c(-c4ccc(C(=O)N5CC(C#N)C5)cc4)n3)cn2)CC1` [Example 102, 1-(4-(2-((1-(1-Acetylpiperidin-4-yl)-1H-pyrazol-4-yl)amino)-5-methylpyrimidin-4-yl)benzoyl)azetidine-3-carbonitrile] yielded a half-maximal inhibitory concentration (IC50) of 2.6 nM. `Cc1cnc(Nc2cnn(C3CC3)c2)nc1-c1ccc(C(=O)NCC#N)c(F)c1` [Example 128, N-(cyanomethyl)-4-(2-((1-cyclopropyl-1H-pyrazol-4-yl)amino)-5-methylpyrimidin-4-yl)-2-fluorobenzamide]: the midpoint of inhibition, the IC50, lay at 1.5 nM. Still for that read-out and setting: as for `N#CC1CN(C(=O)c2ccc(-c3nc(Nc4cnn(C5CC5)c4)ncc3F)cc2F)C1` [Example 127, 1-(4-(2-((1-Cyclopropyl-1H-pyrazol-4-yl)amino)-5-fluoropyrimidin-4-yl)-2-fluorobenzoyl)azetidine-3-carbonitrile], the figure is 53.5 nM; as for `C[C@@H](C#N)NC(=O)c1ccc(-c2nc(Nc3cnn(C4CC4)c3)ncc2F)cc1F` [Example 117, (S)—N-(1-cyanoethyl)-4-(2-((1-cyclopropyl-1H-pyrazol-4-yl)amino)-5-fluoropyrimidin-4-yl)-2-fluorobenzamide], 19 nM. Regarding `Cc1cnc(Nc2cnn(C)c2)nc1-c1ccc(C(=O)NC(C)C#N)cc1` (centres unmarked) [Example 17, N-(1-Cyanoethyl)-4-(5-methyl-2-((1-methyl-1H-pyrazol-4-yl)amino)pyrimidin-4-yl)benzamide], the half-maximal inhibitory concentration (IC50) came out at 5.15 nM.

With `Cc1cnc(Nc2cnn(C)c2)nc1-c1ccc(C(=O)N2CC(C#N)C2)c(F)c1` [Example 103, 1-(2-Fluoro-4-(5-methyl-2-((1-methyl-1H-pyrazol-4-yl)amino)pyrimidin-4-yl)benzoyl)azetidine-3-carbonitrile], the IC50 is 12 nM.
